How the values were obtained:
Adenosine A1 receptor = molecular target: T1, Adenosine A1 receptor (Homo sapiens, UniProt P30542); assay: FLIPR intracellular Ca2+ functional assay, recombinant CHO cells (A1/Gα6qi4myr); type: cell-based; settings: read-out: EC50 values (agonist activity at adenosine receptors) A1
T1 construct: expressed in transfected cells; host or cells: CHO (Chinese hamster ovary) cells, stably double-transfected
T1 sequence (P30542 1-326): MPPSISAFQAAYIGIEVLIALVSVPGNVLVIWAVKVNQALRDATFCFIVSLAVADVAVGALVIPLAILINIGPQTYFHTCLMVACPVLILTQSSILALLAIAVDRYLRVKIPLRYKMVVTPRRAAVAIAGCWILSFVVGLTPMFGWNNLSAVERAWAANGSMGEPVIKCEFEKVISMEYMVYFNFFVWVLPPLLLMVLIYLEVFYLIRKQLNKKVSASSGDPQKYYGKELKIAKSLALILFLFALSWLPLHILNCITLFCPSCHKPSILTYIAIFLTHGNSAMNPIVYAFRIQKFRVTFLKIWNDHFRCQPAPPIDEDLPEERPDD
Method: (§1) In Vitro Functional Assays with Recombinant Cell Lines:
(§2) Functional assays were performed by detection of agonist-induced changes in the intracellular concentration of Ca^2+ in recombinant cell lines expressing adenosine receptor subtypes using the FLIPR™ (fluorescence imaging plate reader, Molecular Devices) technology. To allow optimal signalling through Ca^2+, chinese hamster ovary (CHO) cells were stably double-transfected with cDNAs to achieve expression of suitable combinations of adenosine receptor subtypes (A1, A2a, A2b or A3) with either G-protein Gα16 or hybrid protein Gα6qi4myr (German Patent Application no. 100333532.2). Optimal signals were achieved using combinations as follows:
(§3) For assays, recombinant cells were seeded in 96-well dishes (50000 cells/well) and grown overnight. Medium was then removed and cells incubated for 1 hour in buffer containing the dye Fluo-4. After incubation with dye, cells were washed, test compound added and changes in intracellular Ca^2+ concentration measured by FLIPR. Measured values were expressed as % change relative to controls (0%: no test compound added; 100%: 1 μM Adenosine added) and used for calculation of dose-response curves and subsequent determination of EC50 values.

Adenosine A2b receptor = molecular target: T2, Adenosine A2b receptor (Homo sapiens, UniProt P29275); assay: FLIPR intracellular Ca2+ functional assay, recombinant CHO cells (A2b/Gα16); type: cell-based
T2 construct: expressed in transfected cells; host or cells: CHO (Chinese hamster ovary) cells, stably double-transfected
T2 sequence (P29275 1-332): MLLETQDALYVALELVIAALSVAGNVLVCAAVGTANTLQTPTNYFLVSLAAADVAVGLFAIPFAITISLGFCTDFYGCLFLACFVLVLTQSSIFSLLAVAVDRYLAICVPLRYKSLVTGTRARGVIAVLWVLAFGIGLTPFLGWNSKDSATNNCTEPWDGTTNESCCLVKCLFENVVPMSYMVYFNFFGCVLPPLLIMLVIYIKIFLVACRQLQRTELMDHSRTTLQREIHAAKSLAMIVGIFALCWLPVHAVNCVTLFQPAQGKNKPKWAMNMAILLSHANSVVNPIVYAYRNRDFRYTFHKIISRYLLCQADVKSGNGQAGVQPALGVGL
Method: as §1, §2, §3

Adenosine A3 receptor = molecular target: T3, Adenosine A3 receptor (Homo sapiens, UniProt P0DMS8); assay: FLIPR intracellular Ca2+ functional assay, recombinant CHO cells (A3/Gα6qi4myr); type: cell-based; settings: read-out: EC50 values (agonist activity at adenosine receptors) A3
T3 construct: expressed in transfected cells; host or cells: CHO (Chinese hamster ovary) cells, stably double-transfected
T3 sequence (P0DMS8 1-318): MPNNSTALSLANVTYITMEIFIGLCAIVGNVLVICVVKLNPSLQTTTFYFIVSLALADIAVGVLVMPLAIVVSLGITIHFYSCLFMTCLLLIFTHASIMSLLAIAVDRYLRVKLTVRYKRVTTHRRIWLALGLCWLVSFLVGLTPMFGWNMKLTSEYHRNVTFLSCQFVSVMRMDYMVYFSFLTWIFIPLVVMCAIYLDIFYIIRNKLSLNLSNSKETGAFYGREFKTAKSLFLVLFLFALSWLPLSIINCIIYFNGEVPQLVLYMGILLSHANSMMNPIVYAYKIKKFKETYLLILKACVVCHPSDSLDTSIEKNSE
Method: as §1, §2, §3

isolated rat adipocytes = assay: Antilipolytic effect in isolated rat adipocytes; type: cell-based; settings: Adipocyte, adenosine deaminase-induced lipolysis (glycerol and free fatty acid release)
Method: E. Antilipolytic Effect in Isolated Rat Adipocytes:
For the preparation of isolated rat adipocytes, epididymal fat pads were obtained from male Sprague-Dawley rats (150-180 g) killed by decapitation. The main fat pad blood vessel was removed with forceps and the pads were cut into small pieces. Digestion was carried out at 37° C. in a shaking water bath by treating 1 g of sliced pad for 20 min with 3 ml of 1 mg/ml collagenase (type I, CLS, Worthington) in 1% BSA, fraction V, in KRH (Krebs-Ringer solution buffered with 25 mM HEPES/KOH, pH 7.4, containing 2.5 mM CaCl2, 2 mM glucose, 1 mM sodium pyruvate, 0.5 units/ml adenosin deaminase and 200 nM phenylisopropyl adenosine). The adipocytes were filtered through nylon mesh of sufficient pore size that no pressure other than gentle teasing with a plastic spatula was necessary for the cells to pass through. After three cycles of centrifugation (500 g, 1 min), aspiration of the infranatant. and resuspension in KRH containing 1% BSA, the cells were suspended in KRH containing 4% defatted BSA. Small aliquots of the final suspension were aspirated into capillary hematocrit tubes and centrifuged for 1 min in a Microhematocrit centrifuge in order to determine what fraction of the suspension consisted of fat cells. Results expressed as activities per unit volume of packed adipocytes (corresponding to equivalent numbers of cells) are based on this centrifugation procedure. Lipolysis was initiated by addition of a 100 μl aliquot of the adipocyte suspension to 700 μl of incubation medium [prewarmed to 37° C. and consisting of KRH, 4% defatted BSA and 1 U/ml adenosine deaminase (type I, Sigma)], with or without addition of 8 μl of a solution of the appropriate test substance in 100% DMSO (at a concentration corresponding to 100 times its concentration in the final mixture). […] Incubations were performed in 5 ml polypropylene vials agitated in a shaking water bath (140 cycles/min, amplitude 4.5 cm) at 37° C. for 20, 40, and 60 min. The incubation was terminated by addition of 200 μl of 50 mM EDTA buffered to pH 7.4 with Tris. For the glycerol determination, the whole mixture was mixed rapidly and homogenized with a ground glass pestle in a 1 ml ground glass homogenizing tube (10 pulses). The homogenate was transferred immediately to a 1.5 ml Eppendorf cup precooled to 4° C., after which the extracts were maintained at 4° C. The homogenate was then centrifuged (10,000 g, 15 min) and the infranatant below the fat cake removed with a glass Pasteur pipette. taking care not to aspirate the membrane pellet. and transferred to another Eppendorf cup. 300 μl aliquots of the infranatant were added to 300 μl volumes of 10% (w/v) HClO4. The precipitate was in each case removed by centrifugation (10,000 g, 2 min) and the supernatant neutralized with 20% (w/v) KOH, followed by addition of 50 μl of 1 M Tris/HCl, pH 7.4, A 50 μl sample was then incubated (5 min, 37° C.) with 1 ml of 0.1 M HEPES/KOH, pH 7.5, containing 2 mM ATP, 0.5 mM 4-aminoantipyrine, 1 mM EDTA, 0.5 U glycerol kinase, 4 U glycerol-3-phosphate oxidase, 2 U peroxidase, 2.7 mM p-chlorophenol, 0.04% Triton X-100 and 2 mM MgSO4.7H2O, and the glycerol content determined from the absorbance at 505 nm. For the determination of free fatty acids, 300 μl aliquots of the incubation mixture were added to 3 ml of chloroform/heptane (1:1 v/v) containing 2% (v/v) methanol. and the liberated free fatty acids determined with copper reagent and bathocuproine. The inhibitory activities of the cyclipostins were calculated from the combined results (glycerol and free fatty acid release) by plotting the log of the dose against the percent response (with the adenosine deaminase-induced lipolysis set at 100%). Data in the linear portion of the log (dose)-percent response curves were analyzed using parallel-line bioassay techniques.

[1] = tested on: isolated guinea pig atrium; assay: Effect on the isolated guinea pig atrium (contractile force, heart rate); settings: for Contractile force: at 30 μM; for Heart rate: at 1–100 μM
Method: D. Effect on the Isolated Guinea Pig Atrium:
Guinea pigs of either sex were killed by a blow on the back of the neck and exsanguinated.
Their heart was taken out and the atria removed. The preparation (atrium) was immediately transferred to Ringer solution (JT 431) which was at a temperature of 32° C. and was bubbled with a mixture of 95% O2 and 5% CO2. The composition of the solution in […] was: NaCl 9.0; KCl 0.42 CaCl2 0.24; NaHCO3 0.2; glucose 1.0. The atrium beats spontaneously with an initial tension of 500 mg. The contractile force and the heart rate was recorded with a computer program and automatically calculated (B-mon and A-mon PC programs. Fa. Jäckel. Hanau. GERMANY). After equilibration, the test compound was added to a final bath concentration. N was 4-6 per concentration.

Adenosine A2a receptor = molecular target: T4, Adenosine A2a receptor (Homo sapiens, UniProt P29274); assay: FLIPR intracellular Ca2+ functional assay, recombinant CHO cells (A2a/Gα16); type: cell-based
T4 construct: expressed in transfected cells; host or cells: CHO (Chinese hamster ovary) cells, stably double-transfected
T4 sequence (P29274 whole entry): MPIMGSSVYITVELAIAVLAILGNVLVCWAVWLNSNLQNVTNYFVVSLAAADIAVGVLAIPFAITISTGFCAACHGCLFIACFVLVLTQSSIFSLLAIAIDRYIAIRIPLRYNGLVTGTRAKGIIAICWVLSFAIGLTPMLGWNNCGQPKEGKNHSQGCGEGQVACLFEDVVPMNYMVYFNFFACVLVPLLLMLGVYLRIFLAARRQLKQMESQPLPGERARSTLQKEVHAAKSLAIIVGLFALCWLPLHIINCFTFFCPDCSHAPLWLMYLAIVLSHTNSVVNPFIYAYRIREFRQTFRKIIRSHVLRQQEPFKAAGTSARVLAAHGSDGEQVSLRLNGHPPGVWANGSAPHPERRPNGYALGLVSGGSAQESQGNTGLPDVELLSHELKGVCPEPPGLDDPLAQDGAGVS
Method: as §1, §2, §3

Row | EC50 (Adenosine A1 receptor) | melting point | EC50 values (agonist activity at adenosine receptors) A2B (Adenosine A2b receptor) | EC50 (Adenosine A3 receptor) | IC50 (isolated rat adipocytes) | EC50 values (agonist activity at adenosine receptors) A2A (Adenosine A2a receptor) | EC50 (Adenosine A2b receptor; read-out: EC50 values (agonist activity at adenosine receptors) A2B) | SMILES | Contractile force [1] | Heart rate [1]
1 | 15400 nM | 153 °C | inactive | > 50000 nM | 100 nM | Inactive | – | O[C@@H]1[C@@H](COC(F)(F)F)C[C@@H](n2cnc3c(N[C@H]4CCN(c5ccc(C(F)(F)F)cc5)C4)ncnc32)[C@@H]1O [Example 10, (1R,2S,3R,5R)-3-{6-[1-(4-trifluoromethyl-phenyl-1-yl)-pyrrolidin-3(S)-ylamino]-purin-9-yl}-5-trifluoromethoxymethyl-cyclopentane-1,2-diol] | +3% at 30 μM | no effect at 1–100 μM
2 | 1250 nM | 178 °C | – | > 50000 nM | 5 nM | Inactive | > 30000 nM | O[C@@H]1[C@@H](CF)C[C@@H](n2cnc3c(N[C@H]4CCN(c5ccc(C(F)(F)F)cc5)C4)ncnc32)[C@@H]1O [Example 7, (1R,2S, 3R, 5S)-3-{6-[1-(4-trifluoromethyl-phenyl-1-yl) -pyrrolidin-3(S)-ylamino]-purin-9-yl}-5-fluoromethyl-cyclopentane-1,2-diol] | −1% at 30 μM | no effect at 1–100 μM
